Experiment [1] concerns T. b. brucei 2T1. The experiment can be described thus: Drug sensitivity assay (resazurin). Conditions: Trypanosoma brucei. In kind it is cell-based. On the procedure:
The tbaqp2/tbaqp3 null cells ([Baker et al., 2012]) and tbaqp1-2-3 null cells ([Jeacock et al., 2017]) (both obtained from David Horn, University of Dundee, UK) are derived from the 2T1 strain of T. b. brucei ([Alsford and Horn, 2008]). The CRK12 RNAi cell line^28 was obtained from Dr Tansy Hammarton (University of Glasgow, UK) and is also based on the 2T1 cell line; RNAi expression was induced with 1 µg/ml tetracycline in the medium. All experiments were performed with bloodstream form trypanosomes grown in vitro in HMI-11 medium as described ([Wallace et al., 2002]) at 37°C in a 5% CO2 atmosphere. Cultures were routinely maintained in 10 ml of this medium, being seeded at 5 × 10^4 cells/ml and passed to fresh medium at reaching approximately 3 × 10^6 cells/ml after 48 hr. For transport experiments 150 or 200 ml of culture was seeded at the same density in large flasks and incubated until the culture reached late-log phase.
Drug sensitivity assays for T. b. brucei bloodstream forms used the cell viability dye resazurin (Sigma) and were performed exactly as described ([Wallace et al., 2002]; [Bridges et al., 2007]) in 96-well plates with doubling dilutions of test compound, starting at 100 µM, over 2 rows of the plate (23 dilutions plus no-drug control). Incubation time with test compound was 48 hr (37°C/5% CO2), followed by an additional 24 hr in the presence of the dye.

Experiment [2] has as its target TbAQP2/HAPT1 (Trypanosoma brucei brucei, UniProt Q6ZXT3). The experiment can be described thus: cell-based. Type of experiment: cell-based.
Experiment [3] concerns tbaqp2 null (AQP2-KO). The experiment can be described thus: Drug sensitivity assay (resazurin). In kind it is cell-based. Conditions: Trypanosoma brucei. On the technique in general: Alamar Blue is a resazurin reagent that responds to reducing activity.
For experiment [4], the system named is TbAQP2 expressed in tbaqp2 null. The experiment can be described thus: Drug sensitivity assay (resazurin). Type of experiment: cell-based. Conditions: Trypanosoma brucei.
In experiment [5] the test system is tbaqp2/tbaqp3 null cells. The experiment can be described thus: microbe, parasite or virus in culture. In kind it is cell-based, Trypanosoma brucei brucei. Conditions: Trypanosoma brucei.
The test system of experiment [6] is T. b. brucei s427 WT (bloodstream forms). Type of experiment: cell-based, Trypanosoma brucei brucei.
Experiment [7] relates to s427WT bloodstream forms. In kind it is cell-based, Trypanosoma brucei brucei. The note with it: for Inhibition of pentamidine transport: after preincubation.
The subject of experiment [8] is T. b. brucei s427WT cells. In kind it is cell-based, Trypanosoma brucei brucei.
For experiment [9], the system named is tbaqp1-2-3 null cells expressing TbAQP2 position 84, 118 and 218 Trp and Met mutants. The experiment can be described thus: Drug sensitivity assay (resazurin), pentamidine and SHAM. Type of experiment: cell-based, Trypanosoma brucei brucei.
Experiment [10] concerns tbaqp1-2-3 null cells expressing TbAQP2WT. Described as above. The note with it: +AQP2 W.T in KO AQP1-3. Type of experiment: cell-based, Trypanosoma brucei brucei.
For experiment [11], the system named is tbaqp1-2-3 null cells. Described as above. The note with it: KO AQP1-3. In kind it is cell-based, Trypanosoma brucei brucei.
[12] abbreviates: 48 h drug + 24 h resazurin, read-out: EC50 control 2T1 AVG.
The mark [13] stands for this setting: read-out: EC50 AQP2-KO AVG, AQP2-KO / tbaqp2 null, 48 h drug + 24 h resazurin.
Setting [14] is: 3 repeats, read-out: EC50, MEAN.

The values that follow come from publication PMC7473772 (eLife, 2020).

“And” between values parts separate entries of the source, which are not always exact repeats. Equal entries are not always repeated. Where two headings read alike, the source gives them in different places. Marks after values point to notes of the source that are not given here.

TbAQP2/HAPT1, sequence (Q6ZXT3 whole entry): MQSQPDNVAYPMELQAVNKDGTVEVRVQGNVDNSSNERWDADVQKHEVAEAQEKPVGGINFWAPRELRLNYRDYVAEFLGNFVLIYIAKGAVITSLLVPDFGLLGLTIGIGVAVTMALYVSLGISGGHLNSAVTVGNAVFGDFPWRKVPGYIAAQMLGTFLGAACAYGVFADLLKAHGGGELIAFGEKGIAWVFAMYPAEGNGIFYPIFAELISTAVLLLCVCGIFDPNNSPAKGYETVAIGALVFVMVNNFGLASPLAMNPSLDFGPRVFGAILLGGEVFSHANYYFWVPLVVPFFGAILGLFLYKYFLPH

A word on the Ki: it is a dissociation constant, usually derived from enzyme kinetics or from competition with a known ligand. The low end stands for tighter binding, the high end for weaker binding. Consider `CC[n+]1c(-c2ccccc2)c2cc(N/N=N/c3cccc(C(=N)N)c3)ccc2c2ccc(N)cc21` [Isometamidium], for which the EC50 worked out at 0.112 µM in experiment [1] (setting [12]); 0.112 ± 0.012 µM in [1] (read-out: EC50); 0.103 µM in experiment [3] (setting [13]); 0.103 ± 0.014 µM in experiment [3] (tbaqp2 null, read-out: EC50); 0.098 ± 0.024 µM in experiment [4]; 0.095 ± 0.012 µM in experiment [5]. This molecule gave a ΔG0 in experiment [2] of -7.43 kcal/mol. For the same molecule, the “δ(ΔG0)” value in experiment [2] is 2.72 kcal/mol. In addition, the Ki is 3.54 µM in experiment [2] (HAPT Ki, AVG) and 3.5 µM in experiment [2] (Ki).
“carbonyl cyanide m-chlorophenyl hydrazone [CCCP]”: the PMF in experiment [6] (CCCP 20, gramicidin 10, Nigericin 20, NEM 1000, Control -95.4) is -45.6. Besides, the “Effect of ionophore on pentamidine uptake” value in [7] (25 nM [3H]-pentamidine, 1 mM adenosine, 3 min pre-incubation) is “strongly inhibited”. Besides, the “Inhibition of pentamidine transport” value was ~ 63% in experiment [7] (1 µM) and ~ 90% in [7] (5 µM). In addition, the pentamidine uptake is 106.6 percentage of the uninhibited control in [7] (CCCP 0.25, AVG); 101 percentage of the uninhibited control and 112.1 percentage of the uninhibited control in experiment [7] (CCCP 0.25, single repeats); 36.9 percentage of the uninhibited control in [7] (CCCP 1, AVG); 34.6 percentage of the uninhibited control and 39.1 percentage of the uninhibited control in experiment [7] (CCCP 1, single repeats); 10.3 percentage of the uninhibited control in experiment [7] (CCCP 5, AVG); 4.3 percentage of the uninhibited control in experiment [7] (CCCP 10, AVG). Further, the pentamidine uptake in [7] (CCCP 20, AVG) was 5.0 percentage of the uninhibited control. For the same molecule, in experiment [7] (CCCP 20, gramicidin 10, Nigericin 20, NEM 1000, Control = 100), the 3H-penta is 4.97*. For the same molecule, the “3H-penta, outlier” value in experiment [7] (CCCP 20, repeated in the column outlier, Control = 100) was determined as 4.97. In addition, in [8] (20 µM CCCP, pre-incubation 3 min, suramin accumulation over 10 min), the “Inhibition of [3H]-suramin uptake (endocytosis)” value turned out to be 32.6%. Also, the “suramin accumulated, % of no CCCP control” value in experiment [8] (+CCCP, 10 minutes) was 67.3935 % of no CCCP control. Moreover, in [8] (+CCCP, Average of experiments), the “pmol suramin accumulated in 10 minutes (Average)” value amounted to 0.5894 pmol. The “pmol suramin accumulated in 10 minutes (AVG pmol)” value in experiment [8] (+CCCP, single experiments) is 0.4589 pmol and 0.5929 pmol and 0.7163 pmol.
For `CCN1C(=O)C=CC1=O` [NEM, N-ethylmaleimide], in experiment [6], the PMF is -39.3. For the same molecule, the pentamidine uptake in [7] (NEM 1000, AVG) is 60.1 percentage of the uninhibited control; in experiment [7] (NEM 1000, single repeats), 56.77 percentage of the uninhibited control and 56.26 percentage of the uninhibited control and 67.13 percentage of the uninhibited control.
Consider `CC[n+]1c(-c2ccccc2)c2cc(N)ccc2c2ccc(N)cc21` [Ethidium], for which the EC50 turned out to be 1.32 µM in [1] (setting [12]), 1.39 µM in experiment [3] (setting [13]), 1.35 ± 0.11 µM in experiment [4] and 1.38 ± 0.14 µM in [5]. Also, the ΔG0 in experiment [2] is -5.47 kcal/mol. In addition, the “δ(ΔG0)” value in [2] is 4.71 kcal/mol. Further, in experiment [2] (Ki), the Ki was found to be 97 µM.
For `O=C(NO)c1ccccc1O` [SHAM], the EC50 in experiment [9] (+L84M in KO AQP1-3, 3 repeats, read-out: EC50, MEAN) was 18.1 µM; in experiment [9] (+L84M in KO AQP1-3, read-out: EC50, single repeats) it was 17.6 µM and 17.7 µM and 19.1 µM; in experiment [9] (+L84W in KO AQP1-3, 3 repeats, read-out: EC50, MEAN) it was 13.2 µM; in experiment [9] (+L84W in KO AQP1-3, read-out: EC50, single repeats), 11.3 µM and 13.7 µM and 14.6 µM; in [9] (+L84W/L118W in KO AQP1-3, 3 repeats, read-out: EC50, MEAN) it was 12.2 µM; in experiment [9] (+L84W/L118W in KO AQP1-3, read-out: EC50, single repeats), 11.7 µM and 12.3 µM and 12.6 µM. In addition, the EC50 was 11.5 µM in experiment [9] (+L118M in KO AQP1-3, 3 repeats, read-out: EC50, MEAN); 10.9 µM and 12.3 µM and 11.4 µM in experiment [9] (+L118M in KO AQP1-3, read-out: EC50, single repeats); 10.8 µM in experiment [9] (+L118W in KO AQP1-3, 3 repeats, read-out: EC50, MEAN); 10.4 µM and 11.1 µM and 10.9 µM in [9] (+L118W in KO AQP1-3, read-out: EC50, single repeats); 15.2 µM in experiment [9] (+L218M in KO AQP1-3, 3 repeats, read-out: EC50, MEAN); 15.8 µM and 12.7 µM and 17.1 µM in experiment [9] (+L218M in KO AQP1-3, read-out: EC50, single repeats). Further, the EC50 in [9] (+L218W in KO AQP1-3, 3 repeats, read-out: EC50, MEAN) was 15.9 µM; in [9] (+L218W in KO AQP1-3, read-out: EC50, single repeats) it was 14.7 µM and 16.3 µM and 16.9 µM; in experiment [10] (setting [14]), 18.6 µM; in experiment [10] (read-out: EC50, single repeats), 18.5 µM and 18.1 µM and 19.2 µM; in experiment [11] (setting [14]), 7.9 µM; in [11] (read-out: EC50, single repeats) it was 7.38 µM and 7.93 µM and 8.39 µM.
